From US8598145B2, “Mitochondrially delivered anti-cancer compounds” (priority 2008, dated 2013)

Tests used:
Experiment in all cases: MTT viability assay (IC50)
[1] = tested on: EAhy926; type: cell-based, human
Description: (§1) The following cell lines used in this study were obtained from ATCC, unless specified otherwise: Human T lymphoma cells Jurkat, human mesothelioma cells Meso-I, MM-BI, Ist-Mes, Ist-Mes-2 (Pass, H. I. et al. Characteristics of nine newly derived mesothelioma cell lines. Ann. Thorac. Surg. 59, 835-844 (1995)), human breast cancer cells MCF-7 (erbB2-low) and MDA-MB-453 (erbB2-high), human colorectal cells HCT-116, human hepatocarcinoma cells Huh-7, mouse mesothelioma cells AE17 (Jackaman, C. et al. IL-2 intratumoral immunotherapy enhances CD8+ T cells that mediate destruction of tumor cells and tumor-associated vasculature: a novel mechanism for IL-2. J. Immunol. 171, […] (2003), human non-malignant mesothelial cells Met-5A, […] (Claycomb, W. C. et al. HL-1 cells: a cardiac muscle cell line that contracts and retains phenotypic characteristics of the adult cardiomyocyte. Proc. Natl. Acad. Sci. USA 95, 2979-2984 […]) and H9c2, and the human endothelial-like cells EAhy926 (Edgell, C. J., McDonald, C. C. & Graham, J. B. Permanent cell line expressing human factor VIII-related antigen established by hybridization. Proc. Natl. Acad. Sci. USA 80, 3734-3737 (1983)). Jurkat cells were grown in the RPMI medium while DMEM was used for other malignant cell lines and for Met-5A cells, supplemented with 10% FCS and antibiotics. HL-1 cells, maintained in fibronectin/gelatine-coated dishes, were grown in the Claycomb medium supplemented with noradrenalin (Claycomb, W. C. et al. HL-1 cells: a cardiac muscle cell line that contracts and retains phenotypic characteristics of the adult cardiomyocyte. Proc. Natl. Acad. Sci. USA 95, 2979-2984 […]), EAhy926 cells were grown in complete DMEM supplemented with HAT (Edgell, C. J., McDonald, C. C. & Graham, J. B. Permanent cell line expressing human factor VIII-related antigen established by hybridization. Proc. Natl. Acad. Sci. USA 80, 3734-3737 (1983)). Cells deficient in mtDNA (ρ^0 phenotype) were prepared as detailed in Weber, T. et al., (Mitochondria play a central role in apoptosis induced by α-tocopheryl succinate, an agent with anticancer activity. Comparison with receptor-mediated pro-apoptotic signaling. Biochemistry 42, 4277-4291 (2003)). Acquisition of the ρ^0 phenotype was confirmed by lack of expression by the cells of the mtDNA-encoded cytochrome c oxidase subunit II (COXII not shown). Chinese hamster lung fibroblasts deficient in complex I (B10 cells) (See, B. B. et al. Molecular remedy of complex I defects: rotenone-insensitive internal NADH-quinone oxidoreductase of Saccharomyces cerevisiae mitochondria restores the NADH oxidase activity of complex I-deficient mammalian cells. Proc. Natl. Acad. Sci. USA 95, 9167-9171 (1998)) and complex II (CybL^−/−; B9 cells) (Oostveen, F. G., Au, H. C., Meijer, P. J. & Scheffler, I. E. A Chinese hamster mutant cell line with a defect in the integral membrane protein CII-3 of complex II of the mitochondrial electron transport chain. J. Biol. Chem. 270: 26104-26108 (1995)) as well as the parental cells (B1 cells) (Oostveen, F. G., Au, H. C., Meijer, P. J. & Scheffler, I. E. A Chinese hamster mutant cell line with a defect in the integral membrane protein CII-3 of complex II of the mitochondrial electron transport chain. J. Biol. Chem. 270: 26104-26108 (1995)) were grown in DMEM with 10% FCS, antibiotics, 10 mg/ml glucose and non-essential aminoacids.
(§2) Toxicity of α-TOS, VE11S (“VES”), MitoVE3S, MitoVE5S, MitoVE7S, MitoVE9S, MitoVE11S (“MitoVES”), MitoVE11AE (“MitoVEAE”), MitoVE11F (“MitoVEF”), MitoVE11M (“MitoVEM”), and VES4TPP towards cancer cells was assessed on the basis of IC50, as detailed in Turanek, J., et al. ((2008). Liposomal formulation of vitamin E analogs as an efficient and selective anti-cancer treatment. Clin. Cancer Res. (submitted)). […]

[2] = tested on: Met5A; type: cell-based, human; details: ~60% confluency
Description: as §1, §2

[3] = tested on: Jurkat; type: cell-based, human
Description: as §1, §2

[4] = tested on: MDA-MB-453; type: cell-based, human; details: MDA-MB-453, ~60% confluency
Description: as §1, §2

[5] = tested on: HCT-116; type: cell-based, human; details: HCT-116, ~60% confluency
Description: as §1, §2

[6] = tested on: Meso-2; type: cell-based, human; details: Meso-2, ~60% confluency
Description: as §1, §2

[7] = tested on: Ist-Mes; type: cell-based, human; details: ~60% confluency
Description: as §1, §2

[8] = tested on: Ist-Mes-2; type: cell-based, human; details: Ist-Mes-2, ~60% confluency
Description: as §1, §2

[9] = tested on: MCF-7; type: cell-based, human; details: MCF-7, ~60% confluency
Description: as §1, §2

[10] = tested on: MM-BI; type: cell-based, human; details: ~60% confluency
Description: as §1, §2

[11] = tested on: AE-17; type: cell-based, mouse; details: AE-17, ~60% confluency
Description: The following cell lines used in this study were obtained from ATCC, unless specified otherwise: Human T lymphoma cells Jurkat, human mesothelioma cells Meso-I, MM-BI, Ist-Mes, Ist-Mes-2 (Pass, H. I. et al. Characteristics of nine newly derived mesothelioma cell lines. Ann. Thorac. Surg. 59, 835-844 (1995)), human breast cancer cells MCF-7 (erbB2-low) and MDA-MB-453 (erbB2-high), human colorectal cells HCT-116, human hepatocarcinoma cells Huh-7, mouse mesothelioma cells AE17 (Jackaman, C. et al. IL-2 intratumoral immunotherapy enhances CD8+ T cells that mediate destruction of tumor cells and tumor-associated vasculature: a novel mechanism for IL-2. J. Immunol. […]
as §2

[12] = EAhy926 treated at 100% confluency (top lines)
[13] = EAhy926 treated at ~50% confluency (bottom lines)
[14] = Jurkat, treated at 0.5 × 10^6 per ml, MTT viability curves
[15] = Table VI: Jurkat 0.5 × 10^6 per ml, analogs added as EtOH solution, MTT

Structure (SMILES): Cc1c(C)c2c(c(C)c1OC(=O)CCC(=O)[O-])CCC(C)(CCCCCCCCCCC[P+](c1ccccc1)(c1ccccc1)c1ccccc1)O2 (centres unmarked) [MitoVE11S]
- IC50 [1, 12]: 32 ± 6 µM
- IC50 [1, 13]: 0.7 ± 0.2 µM
- IC50 [2]: 21 ± 4 µM
- IC50 [3, 14]: 0.48 ± 0.1 µM
- IC50 [3, 15]: 0.48 ± 0.1 µM
- IC50 [4]: 3.3 ± 0.7 µM
- IC50 [5]: 2.8 ± 0.8 µM
- IC50 [6]: 2.4 ± 0.5 µM
- IC50 [7]: 2.2 ± 0.3 µM
- IC50 [8]: 1.1 ± 0.25 µM
- IC50 [9]: 1.9 ± 0.5 µM
- IC50 [10]: 1.4 ± 0.3 µM
- IC50 [11]: 3.1 ± 0.7 µM

Structure (SMILES): Cc1c(C)c2c(c(C)c1OC(=O)CCC(=O)O)CC[C@@](C)(CCC[C@H](C)CCC[C@H](C)CCCC(C)C)O2 [α-TOS, α-tocopheryl succinate, reference compound]
- IC50 [1, 12]: > 100 µM
- IC50 [1, 13]: 9.5 ± 2.7 µM
- IC50 [2]: 69 ± 8 µM
- IC50 [3, 14]: 18 ± 3 µM
- IC50 [3, 15]: 18 ± 3 µM
- IC50 [4]: 28 ± 5 µM
- IC50 [5]: 31 ± 6 µM
- IC50 [6]: 29 ± 5 µM
- IC50 [7]: 24 ± 5 µM
- IC50 [8]: 21 ± 3 µM
- IC50 [9]: 22 ± 4 µM
- IC50 [10]: 26 ± 4 µM
- IC50 [11]: 33 ± 5 µM
